Values of other authors in patent publication US20160289773A1 (priority 2013, published 2016).
“And” between values parts separate entries of the source, which are not always exact repeats. Identical values can stand only once.

Tests used:
[1] = test system: Haemonchus contortus; conditions: in vivo
[2] = test system: Haemonchus contortus; conditions: Zaire isolate

c1ccc([C@H]2CN3CCSC3=N2)cc1 [Levamisole, levamisole]
Levamisole efficacy [1]: 100% and > 99% | levamisole susceptibility status of isolate [2]: susceptible
